# Values joined by “and” are separate entries in the source; they are usually repeats but may differ in a detail not shown here. Identical values can stand only once.
# Columns and labels:
# [1] = system: HT-29; assay: Cellular proliferation assay (Alamar blue), HT-29; type: cell-based; conditions: Homo sapiens, HT-29 cells, 72 hours with compound, 10% FCS, read-out: pIC50 HT-29 (converted)
# Method: (§1) […] functional properties of these compounds was tested in cellular proliferation assays on a panel of different cell lines in the presence of 10% FCS serum (37° C. and 5% (v/v) CO2). In a first step these cells were seeded and incubated for 24 hours in the absence of compound. In the second step the cells were incubated for 72 hours with the compounds to be tested for 72 hours. The viable cell number was finally assessed in a standard Alamar blue cell viability assay.
# (§2) The viable cell number was assessed by incubation for either 4 h (HCT-116, H1299, H460) 6 h (SKOV3, HT29, U87-MG, Colo205) or 24 h (A2780, PC3, MDA-MB-231, A549, MCF-7) with Alamar blue (Resazurin 9 μg/ml, K-Ferrocyanide 90 μM K-Ferricyanide 90 μM) and the converted fluorescent product was quantified on a fluorescent plate readed (544 nm/590 nm). Effect of the compounds is calculated as of on control cells.
# [2] = system: U87MG; assay: Cellular proliferation assay (Alamar blue), U87MG; type: cell-based; conditions: Homo sapiens, U-87 MG, 72 h, U87MG cells, 72 hours with compound, 10% FCS, read-out: pIC50 U87MG (converted)
# In short: (§3)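 Proliferation was assessed over 72 h of compound treatment, following 24 h of seeding without compound, under 10% FCS, 37° C. and 5% CO2. Fluorescent resazurin product was measured and compared with control cells.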
# [3] = target: CDK1/CyclinB (h) (Homo sapiens, UniProt P06493); assay: CDK1/CyclinB human kinase assay (FRET); type: biochemical; conditions: read-out: CDK1 pIC50 (converted)
# CDK1/CyclinB (h), sequence (P06493 whole entry): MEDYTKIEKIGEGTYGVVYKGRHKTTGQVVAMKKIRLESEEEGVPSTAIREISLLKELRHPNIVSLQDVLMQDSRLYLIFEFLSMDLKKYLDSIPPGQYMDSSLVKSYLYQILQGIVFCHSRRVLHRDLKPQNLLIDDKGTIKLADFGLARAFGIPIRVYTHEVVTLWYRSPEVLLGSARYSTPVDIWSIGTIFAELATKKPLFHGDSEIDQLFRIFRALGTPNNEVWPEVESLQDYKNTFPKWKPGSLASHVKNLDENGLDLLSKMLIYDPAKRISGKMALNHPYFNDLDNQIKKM
# CDK1/CyclinB (h), sequence (P14635 whole entry partner): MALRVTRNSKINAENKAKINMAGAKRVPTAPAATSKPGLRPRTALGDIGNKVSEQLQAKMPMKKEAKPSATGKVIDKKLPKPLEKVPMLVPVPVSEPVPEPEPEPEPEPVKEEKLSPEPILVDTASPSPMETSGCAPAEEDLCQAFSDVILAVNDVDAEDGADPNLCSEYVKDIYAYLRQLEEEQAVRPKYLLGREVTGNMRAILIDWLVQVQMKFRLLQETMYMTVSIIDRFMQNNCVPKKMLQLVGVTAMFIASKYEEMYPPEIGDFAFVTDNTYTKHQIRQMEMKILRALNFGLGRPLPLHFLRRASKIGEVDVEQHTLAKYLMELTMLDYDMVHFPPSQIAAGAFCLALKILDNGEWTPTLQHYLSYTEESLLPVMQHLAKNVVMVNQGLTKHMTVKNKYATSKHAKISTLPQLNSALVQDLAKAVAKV
# In short: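 Kinase activity was read as the 460/538 nm emission ratio after protease cleavage of unphosphorylated peptide (60 min development). The reaction ran 60 min at room temperature with 10 μM ATP, 2 μM Ser/Thr peptide 12 and 0.2 μg/ml enzyme in Hepes pH 7.5 buffer with MgCl2, EGTA, Brij-35.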
# [4] = system: HCT-116; assay: Cellular proliferation assay (Alamar blue), HCT-116; type: cell-based; conditions: Homo sapiens, HCT-116, 72 h, HCT-116 cells, 72 hours with compound, 10% FCS, read-out: pIC50 HCT-116 (converted)
# In short: as §3
# [5] = system: A2780; assay: Cellular proliferation assay (Alamar blue), A2780; type: cell-based; conditions: Homo sapiens, A2780, 72 h, A2780 cells, 72 hours with compound, 10% FCS, read-out: pIC50 A2780 (converted)
# In short: as §3
# [6] = system: SK-N-SH; assay: Cellular proliferation assay (Alamar blue), SK-N-SH; type: cell-based; conditions: Homo sapiens, SK-N-SH cells, 72 hours with compound, 10% FCS, read-out: pIC50 SK-N-SH (converted)
# Method: as §1, §2
Compound,IC50 [1] [µM],IC50 [2] [µM],IC50 [3],IC50 [4] [µM],IC50 [5] [µM],IC50 [6] [µM]
COc1ccc2cc1OCCCC(=O)N(C)CCCN(C)c1ncnc3c1/C(=C/N2)C(=O)N3 [Compound 31],2.82,1.62,4.68 µM,1.58,2.88,< 0.302
COc1ccc2cc1OCCCCCC(=O)N1CCN(CC1)c1ncnc3c1/C(=C/N2)C(=O)N3 [Compound 18],> 10,,> 10 µM,> 10,,> 10
COc1ccc2cc1OCCCC(=O)N(C)CCCNc1ncnc3c1/C(=C/N2)C(=O)N3 [Compound 9],0.525,2.24,0.132 µM and 0.12 µM,0.457,0.282,< 0.302
